{"source": "patent US20160175306A1", "about": "“COMBINATION OF A IMIDAZOPYRIDAZINE DERIVATIVE AND A MITOTIC AGENT FOR THE TREATMENT OF CANCER” (BAYER PHARMA AKTIENGESELLSCHAFT, priority 2013, published 2016)", "key": {"human kinase Mps-1": {"target": "T1, human kinase Mps-1 (Homo sapiens, UniProt P33981)", "T1 construct": "N-terminally GST-tagged human full length recombinant Mps-1 kinase; purchased Invitrogen, Karslruhe, Germany PV4071", "T1 sequence (P33981 1-857)": "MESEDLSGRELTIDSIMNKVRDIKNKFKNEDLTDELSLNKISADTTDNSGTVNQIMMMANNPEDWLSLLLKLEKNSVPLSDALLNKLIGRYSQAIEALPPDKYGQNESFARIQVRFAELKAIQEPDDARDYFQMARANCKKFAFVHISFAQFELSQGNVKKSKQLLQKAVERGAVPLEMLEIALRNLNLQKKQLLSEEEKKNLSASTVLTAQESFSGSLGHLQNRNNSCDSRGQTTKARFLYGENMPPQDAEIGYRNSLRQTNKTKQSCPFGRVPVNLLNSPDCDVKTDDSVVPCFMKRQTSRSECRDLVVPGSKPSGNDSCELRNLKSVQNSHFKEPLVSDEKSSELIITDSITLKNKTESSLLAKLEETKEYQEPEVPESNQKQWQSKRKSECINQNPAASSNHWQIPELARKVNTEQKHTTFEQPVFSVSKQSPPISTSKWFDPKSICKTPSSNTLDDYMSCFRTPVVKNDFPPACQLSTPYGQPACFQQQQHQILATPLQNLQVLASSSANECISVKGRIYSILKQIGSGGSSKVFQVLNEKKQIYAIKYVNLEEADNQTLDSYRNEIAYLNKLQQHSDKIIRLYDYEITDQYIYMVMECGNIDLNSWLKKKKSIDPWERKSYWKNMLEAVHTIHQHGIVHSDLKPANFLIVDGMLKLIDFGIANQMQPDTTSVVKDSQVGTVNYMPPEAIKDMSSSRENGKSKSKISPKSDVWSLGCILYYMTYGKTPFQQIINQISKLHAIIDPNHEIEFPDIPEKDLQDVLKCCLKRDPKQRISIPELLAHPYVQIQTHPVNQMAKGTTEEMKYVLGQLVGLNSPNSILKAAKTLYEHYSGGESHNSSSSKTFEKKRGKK", "assay": "Mps-1 Kinase Assay (TR-FRET)", "format": "biochemical", "settings": "10 μM ATP", "experimental": "The human kinase Mps-1 phosphorylates a biotinylated substrate peptide. Detection of the phosphorylated product is achieved by time-resolved fluorescence resonance energy transfer (TR-FRET) from Europium-labelled anti-phospho-Serine/Threonine antibody as donor to streptavidin Labelled with cross-linked allophycocyanin (SA-XLent) as acceptor. Compounds are tested for their inhibition of the kinase activity.\nN-terminally GST-tagged human full length recombinant Mps-1 kinase (purchased from Invitrogen, Karslruhe, Germany, cat. no PV4071) was used. As substrate for the kinase reaction a biotinylated peptide of the amino-acid sequence […] (C-terminus in amide form, purchased from Biosynthan GmbH, Berlin) was used.\nThe concentration of Mps-1 in the assay was adjusted to the activity of the enzyme lot and was chosen appropriate to have the assay in the linear range, typical enzyme concentrations were in the range of about 1 nM (final conc. in the 5 μl assay volume).\nThe resulting mixture was incubated 1 h at 22° C. to allow the binding of the phosphorylated peptide to the anti-phospho(Ser/Thr)-Europium-antibody. Subsequently the amount of phosphorylated substrate was evaluated by measurement of the resonance energy transfer from the Europium-labelled anti-phospho(Ser/Thr) antibody to the Streptavidin-XLent."}, "rat hepatocytes": {"system": "rat hepatocytes", "assay": "In vitro metabolic stability in rat hepatocytes", "format": "in vitro ADME", "settings": "1 μM test compound, calculated from half-life", "experimental": "Investigation of In Vitro Metabolic Stability in Rat Hepatocytes (Including Calculation of Hepatic In Vivo Blood Clearance (CL))\nHepatocytes from Han Wistar rats were isolated via a 2-step perfusion method. After perfusion, the liver was carefully removed from the rat: the liver capsule was opened and the hepatocytes were gently shaken out into a Petri dish with ice-cold WME. The resulting cell suspension was filtered through sterile gaze in 50 ml falcon tubes and centrifuged at 50×g for 3 min at room temperature.\nThe cell pellet was resuspended in 30 ml WME and centrifuged through a Percoll® gradient for 2 times at 100×g. The hepatocytes were washed again with Williams' medium E (WME) and resuspended in medium containing 5% FCS. Cell viability was determined by trypan blue exclusion.\nFor the metabolic stability assay liver cells were distributed in WME containing 5% FCS to glass vials at a density of 1.0×10^6 vital cells/m. The test compound was added to a final concentration of 1 μM. During incubation, the hepatocyte suspensions were continuously shaken and aliquots were taken at 2, 8, 16, 30, 45 and 90 min, to which equal volumes of cold methanol were immediately added. Samples were frozen at −20° C. over night, after subsequently centrifuged for 15 minutes at 3000 rpm and the supernatant was analyzed with an Agilent 1200 HPLC-system with LCMS/MS detection.\nThe half-life of a test compound was determined from the concentration-time plot. From the half-life the intrinsic clearances were calculated. Together with the additional parameters liver blood flow, amount of liver cells in vivo and in vitro. The hepatic in vivo blood clearance (CL) and the maximal oral bioavailability (Fmax) was calculated. The following parameter values were used: Liver blood flow—4.2 L/h/kg rat; specific liver weight—32 g/kg rat body weight; liver cells in vivo—1.1×10^8 cells/g liver, liver cells in vitro—0.5×10^6/ml."}}, "data": [{"compound": "C=C(c1cc(NCCC(F)(F)F)c2ncc(-c3ccc(C(=O)NC4CC4)c(C)c3)n2n1)c1cccc(F)c1F", "note": "[Compound A15, N-Cyclopropyl-4-{6-[1-(2,3-difluorophenyl)vinyl]-8-[(3,3,3-trifluoropropyl)amino]imidazo[1,2-b]pyridazin-3-yl}-2-methylbenzamide]", "values": [{"measurement": "IC50", "setting": "human kinase Mps-1", "result": 400, "unit": "pM"}, {"measurement": "Fmax (maximal oral bioavailability)", "setting": "rat hepatocytes", "result": 53, "unit": "%"}]}, {"compound": "COc1ccc(Cc2cc(NCCC(F)(F)F)c3ncc(-c4ccc(C(=O)NC5CC5)c(C)c4)n3n2)cc1", "note": "[Comparative Example 5, N-Cyclopropyl-4-{6-(4-methoxybenzyl)-8-[(3,3,3-trifluoropropyl)amino]imidazo[1,2-b]pyridazin-3-yl}-2-methylbenzamide, reference compound]", "values": [{"measurement": "Fmax (maximal oral bioavailability)", "setting": "rat hepatocytes", "result": 35, "unit": "%"}]}, {"compound": "Cc1cc(-c2cnc3c(NCCC(F)(F)F)cc(C4(c5cc(F)ccc5F)CC4)nn23)ccc1C(=O)NC1CC1", "note": "[Compound A20, N-Cyclopropyl-4-{6-[1-(2,5-difluorophenyl)cyclopropyl]-8-[(3,3,3-trifluoropropyl)amino]imidazo[1,2-b]pyridazin-3-yl}-2-methylbenzamide]", "values": [{"measurement": "IC50", "setting": "human kinase Mps-1", "result": 800, "unit": "pM"}]}, {"compound": "Cc1cc(-c2cnc3c(NCCC(F)(F)F)cc(C4(c5cccc(F)c5)CC4)nn23)ccc1C(=O)NC1CC1", "note": "[Compound A25, N-cyclopropyl-4-{6-[1-(3-fluorophenyl)cyclopropyl]-8-[(3,3,3-trifluoropropyl)amino]imidazo[1,2-b]pyridazin-3-yl}-2-methylbenzamide]", "values": [{"measurement": "IC50", "setting": "human kinase Mps-1", "result": 900, "unit": "pM"}, {"measurement": "Fmax (maximal oral bioavailability)", "setting": "rat hepatocytes", "result": 52, "unit": "%"}]}, {"compound": "Cc1cc(-c2cnc3c(NCCC(F)(F)F)cc(C(=O)c4cc(F)ccc4F)nn23)ccc1C(=O)NC1CC1", "note": "[Compound A12, N-Cyclopropyl-4-{6-(2,5-difluorobenzoyl)-8-[(3,3,3-trifluoropropyl)amino]imidazo[1,2-b]pyridazin-3-yl}-2-methylbenzamide]", "values": [{"measurement": "IC50", "setting": "human kinase Mps-1", "result": 600, "unit": "pM"}, {"measurement": "Fmax (maximal oral bioavailability)", "setting": "rat hepatocytes", "result": 67, "unit": "%"}]}, {"compound": "Cc1cc(-c2cnc3c(NCCC(F)(F)F)cc(Cc4cccc(F)c4O)nn23)ccc1C(=O)NC1CC1", "note": "[Comparative Example 2, N-Cyclopropyl-4-{6-(3-fluoro-2-hydroxybenzyl)-8-[(3,3,3-trifluoropropyl)amino]imidazo[1,2-b]pyridazin-3-yl}-2-methylbenzamide, reference compound]", "values": [{"measurement": "Fmax (maximal oral bioavailability)", "setting": "rat hepatocytes", "result": 3, "unit": "%"}]}, {"compound": "Cc1cc(-c2cnc3c(NCCC(F)(F)F)cc(C(C)(O)c4cccc(F)c4O)nn23)ccc1C(=O)NC1CC1", "note": "(racemic) [Compound A4, (RS)—N-Cyclopropyl-4-{6-[1-(3-fluoro-2-hydroxyphenyl)-1-hydroxyethyl]-8-[(3,3,3-trifluoropropyl)amino]imidazo[1,2-b]pyridazin-3-yl}-2-methylbenzamide]", "values": [{"measurement": "IC50", "setting": "human kinase Mps-1", "result": 300, "unit": "pM"}, {"measurement": "Fmax (maximal oral bioavailability)", "setting": "rat hepatocytes", "result": 36, "unit": "%"}]}, {"compound": "COc1ccc(Cc2cc(NCCC(F)(F)F)c3ncc(-c4ccc(C(=O)NC5CC5)c(C)c4)n3n2)cc1F", "note": "[Comparative Example 1, N-Cyclopropyl-4-{6-(3-fluoro-4-methoxybenzyl)-8-[(3,3,3-trifluoropropyl)amino]imidazo[1,2-b]pyridazin-3-yl}-2-methylbenzamide, reference compound]", "values": [{"measurement": "Fmax (maximal oral bioavailability)", "setting": "rat hepatocytes", "result": 29, "unit": "%"}]}, {"compound": "COc1ccc(C(F)(F)c2cc(NCCC(F)(F)F)c3ncc(-c4ccc(C(=O)NC5CC5)c(C)c4)n3n2)cc1", "note": "[Compound A16, N-Cyclopropyl-4-{6-[difluoro(4-methoxyphenyl)methyl]-8-[(3,3,3-trifluoropropyl)amino]imidazo[1,2-b]pyridazin-3-yl}-2-methylbenzamide]", "values": [{"measurement": "Fmax (maximal oral bioavailability)", "setting": "rat hepatocytes", "result": 56, "unit": "%"}]}, {"compound": "C=C(c1cc(NCCC(F)(F)F)c2ncc(-c3ccc(C(=O)NC4CC4)c(C)c3)n2n1)c1cc(F)ccc1F", "note": "[Compound A19, N-Cyclopropyl-4-{6-[1-(2,5-difluorophenyl)vinyl]-8-[(3,3,3-trifluoropropyl)amino]imidazo[1,2-b]pyridazin-3-yl}-2-methylbenzamide]", "values": [{"measurement": "IC50", "setting": "human kinase Mps-1", "result": 600, "unit": "pM"}]}, {"compound": "Cc1cc(-c2cnc3c(NCCC(F)(F)F)cc(C4(c5cccc(F)c5F)CC4)nn23)ccc1C(=O)NC1CC1", "note": "[Compound A17, N-Cyclopropyl-4-{6-[1-(2,3-difluorophenyl)cyclopropyl]-8-[(3,3,3-trifluoropropyl)amino]imidazo[1,2-b]pyridazin-3-yl}-2-methylbenzamide]", "values": [{"measurement": "Fmax (maximal oral bioavailability)", "setting": "rat hepatocytes", "result": 50, "unit": "%"}]}, {"compound": "Cc1cc(-c2cnc3c(NCCC(F)(F)F)cc(C(F)(F)c4cccc(F)c4)nn23)ccc1C(=O)NC1CC1", "note": "[Compound A6, N-Cyclopropyl-4-{6-[difluoro(3-fluorophenyl)methyl]-8-[(3,3,3-trifluoropropyl)amino]imidazo[1,2-b]pyridazin-3-yl}-2-methylbenzamide]", "values": [{"measurement": "Fmax (maximal oral bioavailability)", "setting": "rat hepatocytes", "result": 70, "unit": "%"}]}, {"compound": "Cc1cc(-c2cnc3c(NCCC(F)(F)F)cc(C4(c5cc(F)ccc5O)CC4)nn23)ccc1C(=O)NC1CC1", "note": "[Compound A23, N-cyclopropyl-4-{6-[1-(5-fluoro-2-hydroxyphenyl)cyclopropyl]-8-[(3,3,3-trifluoropropyl)amino]imidazo[1,2-b]pyridazin-3-yl}-2-methylbenzamide]", "values": [{"measurement": "Fmax (maximal oral bioavailability)", "setting": "rat hepatocytes", "result": 40, "unit": "%"}]}, {"compound": "Cc1cc(-c2cnc3c(NCCC(F)(F)F)cc(Cc4cccc(F)c4)nn23)ccc1C(=O)NC1CC1", "note": "[Comparative Example 3, N-Cyclopropyl-4-{6-(3-fluorobenzyl)-8-[(3,3,3-trifluoropropyl)amino]imidazo[1,2-b]pyridazin-3-yl}-2-methylbenzamide, reference compound]", "values": [{"measurement": "Fmax (maximal oral bioavailability)", "setting": "rat hepatocytes", "result": 43, "unit": "%"}]}, {"compound": "COc1ccc(C(=O)c2cc(NCCC(F)(F)F)c3ncc(-c4ccc(C(=O)NC5CC5)c(C)c4)n3n2)cc1F", "note": "[Compound A13, N-Cyclopropyl-4-{6-(3-fluoro-4-methoxybenzoyl)-8-[(3,3,3-trifluoropropyl)amino]imidazo[1,2-b]pyridazin-3-yl}-2-methylbenzamide]", "values": [{"measurement": "Fmax (maximal oral bioavailability)", "setting": "rat hepatocytes", "result": 75, "unit": "%"}]}, {"compound": "COc1cccc(Cc2cc(NCCC(F)(F)F)c3ncc(-c4ccc(C(=O)NC5CC5)c(C)c4)n3n2)c1", "note": "[Comparative Example 4, N-cyclopropyl-4-{6-(3-methoxybenzyl)-8-[(3,3,3-trifluoropropyl)amino]imidazo[1,2-b]pyridazin-3-yl}-2-methylbenzamide, reference compound]", "values": [{"measurement": "Fmax (maximal oral bioavailability)", "setting": "rat hepatocytes", "result": 18, "unit": "%"}]}, {"compound": "C=C(c1ccc(OC)c(F)c1)c1cc(NCCC(F)(F)F)c2ncc(-c3ccc(C(=O)NC4CC4)c(C)c3)n2n1", "note": "[Compound A1, N-Cyclopropyl-4-{6-[1-(3-fluoro-4-methoxyphenyl)ethenyl]-8-[(3,3,3-trifluoropropyl)amino]imidazo[1,2-b]pyridazin-3-yl}-2-methylbenzamide]", "values": [{"measurement": "Fmax (maximal oral bioavailability)", "setting": "rat hepatocytes", "result": 39, "unit": "%"}]}, {"compound": "Cc1cc(-c2cnc3c(NCCC(F)(F)F)cc(C(F)(F)c4cc(F)ccc4F)nn23)ccc1C(=O)NC1CC1", "note": "[Compound A21, N-Cyclopropyl-4-{6-[(2,5-difluorophenyl)(difluoro)methyl]-8-[(3,3,3-trifluoropropyl)amino]imidazo[1,2-b]pyridazin-3-yl}-2-methylbenzamide]", "values": [{"measurement": "IC50", "setting": "human kinase Mps-1", "result": 500, "unit": "pM"}]}]}
